Test results reported in the supplement of paper PMC10307832.

Legend:
Assay in all cases: relative viability (nuclei count vs DMSO), 5 days (fraction); higher = more cells survive
[1] = compound: O=C(O)c1ccc2c(c1)nc(Nc1cccc(Cl)c1)c1ccncc12 [Silmitasertib] + CC(C)C[C@H](NC(=O)[C@H](Cc1ccccc1)NC(=O)c1cnccn1)B(O)O [Bortezomib] (partner 0.002 µM)
Outline: (§1)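 For relative viability, nuclei counts in treated wells were divided by those in vehicle wells. Lung cancer cell lines had been pin-tool dosed in 1536-well plates the day after seeding and cultured for 5 days, then fixed and stained in one step (final 0.05% Triton X-100, 1% formaldehyde, 1 ug/ml Hoechst) and imaged at 4×. Doses were one drug alone or a fixed anchor-drug dose plus five library-drug doses (not always all listed) in √10 steps, and values are duplicate-plate medians.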

[2] = compound: O=C(O)c1ccc2c(c1)nc(Nc1cccc(Cl)c1)c1ccncc12 [Silmitasertib] + Cc1cc(Nc2cc(N3CCN(C)CC3)nc(Sc3ccc(NC(=O)C4CC4)cc3)n2)n[nH]1 [Tozasertib] (partner 0.1 µM)
Outline: as §1

Silmitasertib + OSI-027 = compound: O=C(O)c1ccc2c(c1)nc(Nc1cccc(Cl)c1)c1ccncc12 [Silmitasertib] + COc1cccc2cc(-c3nc([C@H]4CC[C@H](C(=O)O)CC4)n4ncnc(N)c34)[nH]c12 [OSI-027] (partner 0.5 µM)
Outline: as §1

[3] = compound: O=C(O)c1ccc2c(c1)nc(Nc1cccc(Cl)c1)c1ccncc12 [Silmitasertib] + CC(=O)c1c(C)c2cnc(Nc3ccc(N4CCNCC4)cn3)nc2n(C2CCCC2)c1=O [Palbociclib] (partner 0.5 µM)
Outline: as §1

[4] = compound: O=C(O)c1ccc2c(c1)nc(Nc1cccc(Cl)c1)c1ccncc12 [Silmitasertib] + Nc1nc2[nH]cc(CCc3ccc(C(=O)N[C@@H](CCC(=O)O)C(=O)O)cc3)c2c(=O)[nH]1 [Pemetrexed] (partner 0.2 µM)
Outline: as §1

Cell Line | relative viability ([1]; first compound 0.04 µM) | relative viability ([1]; first compound 0.4 µM) | relative viability ([1]; first compound 1.265 µM) | relative viability ([1]; first compound 4 µM) | relative viability ([2]; first compound 0.04 µM) | relative viability ([2]; first compound 0.4 µM) | relative viability ([2]; first compound 1.265 µM) | relative viability ([2]; first compound 4 µM) | relative viability (Silmitasertib + OSI-027; first compound 0.04 µM) | relative viability (Silmitasertib + OSI-027; first compound 0.4 µM) | relative viability (Silmitasertib + OSI-027; first compound 1.265 µM) | relative viability (Silmitasertib + OSI-027; first compound 4 µM) | relative viability ([3]; first compound 0.04 µM) | relative viability ([3]; first compound 0.4 µM) | relative viability ([3]; first compound 1.265 µM) | relative viability ([3]; first compound 4 µM) | relative viability ([4]; first compound 0.04 µM) | relative viability ([4]; first compound 0.4 µM) | relative viability ([4]; first compound 1.265 µM) | relative viability ([4]; first compound 4 µM)
COR-L23 | 1.15 | 0.723 | 0.919 | 0.932 | 0.232 | 0.2 | 0.118 | 0.159 | 0.786 | 0.496 | 0.828 | 0.419 | 0.316 | 0.251 | 0.261 | 0.207 | 0.206 | 0.223 | 0.181 | 0.192
NCI-H1355 | 1.27 | – | 1.16 | 0.929 | 0.545 | – | 0.528 | 0.46 | 0.438 | – | 0.371 | 0.345 | 0.403 | – | 0.358 | 0.366 | 1.04 | – | 1.01 | 0.852
NCI-H460 | 1.22 | 0.967 | 1.09 | 1.15 | 0.556 | 0.119 | 0.405 | 0.523 | 0.822 | 0.688 | 0.64 | 0.672 | 0.203 | 0.25 | 0.189 | 0.075 | 0.0675 | 0.0541 | 0.0651 | 0.0575
NCI-H1993 | 1.33 | 0.857 | 0.995 | 0.745 | 0.622 | 0.523 | 0.522 | 0.53 | 0.544 | 0.56 | 0.614 | 0.658 | 0.57 | 0.576 | 0.525 | 0.44 | 0.616 | 0.524 | 0.598 | 0.505
ChaGo-K-1 | 1.32 | 0.934 | 0.957 | 0.537 | 0.198 | 0.219 | 0.231 | 0.241 | 0.602 | 0.456 | 0.567 | 0.353 | 0.995 | 0.674 | 0.896 | 0.929 | 0.265 | 0.24 | 0.253 | 0.275
HCC-15 | 1.02 | 0.655 | 0.856 | 0.408 | 0.392 | 0.356 | 0.232 | 0.133 | 0.761 | 0.552 | 0.437 | 0.24 | 0.77 | 0.491 | 0.564 | 0.367 | 0.242 | 0.229 | 0.216 | 0.215
NCI-H23 | 1.01 | – | 0.782 | 0.706 | 0.427 | – | 0.223 | 0.188 | 0.706 | – | 0.423 | 0.206 | 0.467 | 0.444 | 0.423 | 0.393 | 0.779 | 0.389 | 0.57 | 0.303
NCI-H1666 | 1.01 | 0.702 | 0.5 | 0.468 | 0.734 | 0.626 | 0.543 | 0.446 | 0.812 | 0.732 | 0.652 | 0.615 | 0.617 | 0.654 | 0.578 | 0.61 | 0.89 | 0.795 | 0.72 | 0.63
NCI-H2405 | 0.936 | 0.792 | 0.874 | 0.904 | 0.772 | 0.526 | 0.652 | 0.665 | 0.646 | 0.518 | 0.498 | 0.567 | 0.574 | 0.501 | 0.425 | 0.536 | 1.12 | 1 | 0.73 | 0.86
NCI-H2009 | 1.14 | 0.545 | 0.944 | 0.463 | 0.817 | 0.839 | 0.719 | 0.474 | 0.784 | 0.506 | 0.424 | 0.262 | 0.234 | 0.199 | 0.193 | 0.203 | 1.09 | 0.98 | 1.13 | 0.908
HCC-78 | 0.609 | 0.333 | – | 0.551 | 0.446 | 0.315 | 0.384 | 0.492 | 0.437 | 0.346 | 0.369 | 0.335 | 0.521 | 0.432 | 0.497 | 0.455 | 0.91 | 0.886 | 0.613 | 0.918
HCC-366 | 1.1 | – | 0.995 | 0.482 | 0.107 | 0.0962 | 0.0628 | 0.0717 | 0.896 | 0.489 | 0.7 | 0.0818 | 0.422 | 0.329 | 0.36 | 0.38 | 0.13 | 0.162 | 0.175 | 0.128
NCI-H1651 | 0.957 | 0.894 | 1.02 | 0.934 | 0.785 | 0.556 | 0.541 | 0.443 | 0.822 | 0.667 | 0.642 | 0.704 | 0.495 | 0.516 | 0.534 | 0.528 | 0.625 | 0.38 | 0.247 | 0.665
LC-2-ad | 1.13 | 0.858 | 1 | 0.605 | 0.537 | 0.411 | 0.388 | 0.374 | 0.982 | 0.709 | 0.721 | 0.483 | 0.47 | 0.499 | 0.462 | 0.538 | 0.288 | 0.264 | 0.26 | 0.227
HCC-827 | 1.04 | – | 1.2 | 0.89 | 0.454 | – | 0.398 | 0.471 | 0.872 | – | 0.702 | 0.736 | 0.556 | – | 0.343 | 0.442 | 0.282 | – | 0.282 | 0.273
SK-LU-1 | 1.33 | 0.735 | 0.801 | 0.394 | 0.358 | 0.315 | 0.221 | 0.195 | 0.432 | 0.248 | 0.223 | 0.197 | 0.424 | 0.342 | 0.245 | 0.312 | 0.984 | 0.885 | 0.771 | 0.351
COR-L 105 | 0.803 | 0.708 | 0.64 | 0.414 | 0.394 | 0.349 | 0.389 | 0.326 | 0.767 | 0.617 | 0.58 | 0.348 | 0.43 | 0.426 | 0.396 | 0.399 | 1.05 | 1.19 | 0.951 | 0.785
LOU-NH91 | 0.509 | 0.46 | 0.394 | 0.452 | 0.689 | 0.539 | 0.441 | 0.484 | 0.709 | 0.665 | 0.629 | 0.543 | 0.519 | 0.522 | 0.579 | 0.553 | 0.357 | 0.383 | 0.368 | 0.457
NCI-H661 | 0.852 | – | 0.734 | 1.1 | 0.346 | 0.368 | 0.334 | 0.364 | 0.864 | 0.593 | 0.635 | 0.577 | 0.421 | 0.511 | 0.407 | 0.359 | 0.93 | 0.966 | 0.865 | 0.666
LU99A | 1.22 | 1.18 | 0.899 | 0.438 | 0.316 | 0.29 | 0.263 | 0.256 | 0.276 | 0.293 | 0.314 | 0.255 | 0.359 | 0.397 | 0.325 | 0.404 | 0.187 | 0.168 | 0.148 | 0.168
NCI-H1650 | 0.375 | 0.192 | 0.232 | 0.195 | 0.466 | 0.517 | 0.272 | 0.235 | 0.99 | 0.511 | 0.496 | 0.203 | 0.5 | 0.436 | 0.25 | 0.186 | 0.339 | 0.454 | 0.387 | 0.319
SW 1573 | 1.09 | 1.15 | 1.02 | 0.977 | 0.199 | 0.185 | 0.231 | 0.187 | 0.648 | 0.616 | 0.548 | 0.319 | 0.415 | 0.373 | 0.309 | 0.337 | 1.11 | 0.875 | 0.89 | 0.697
HOP-62 | 0.504 | – | 0.425 | 0.486 | 0.4 | – | 0.341 | 0.296 | 0.897 | – | 0.905 | 0.497 | 0.466 | – | 0.373 | 0.396 | 0.281 | – | 0.269 | 0.301
UMC-11 | 0.679 | 0.588 | 0.65 | 0.542 | 0.199 | 0.218 | 0.184 | 0.16 | 0.491 | 0.485 | 0.438 | 0.402 | 0.364 | 0.344 | 0.347 | 0.379 | 0.951 | 0.785 | 0.774 | 0.553
LCLC-103H | 1.15 | 0.956 | 0.817 | 0.739 | 0.522 | 0.341 | 0.356 | 0.289 | 0.519 | 0.4 | 0.438 | 0.384 | 0.462 | 0.45 | 0.266 | 0.389 | 0.49 | 0.394 | 0.416 | 0.378
NCI-H1734 | 0.911 | – | 0.827 | 0.841 | 0.275 | 0.261 | 0.274 | 0.243 | 0.626 | 0.522 | 0.593 | 0.497 | 0.343 | 0.326 | 0.323 | 0.36 | 0.443 | 0.336 | 0.423 | 0.386
EKVX | 1.12 | 0.686 | 0.928 | 0.59 | 0.434 | 0.25 | 0.295 | 0.405 | 0.812 | 0.533 | 0.605 | 0.662 | 0.439 | – | 0.336 | 0.423 | 0.394 | – | 0.383 | 0.338
HARA | 1.12 | 0.812 | 0.949 | 0.766 | 0.107 | 0.0804 | 0.0797 | 0.0693 | 0.715 | 0.203 | 0.432 | 0.141 | 0.389 | 0.252 | 0.201 | 0.261 | 0.268 | 0.215 | 0.213 | 0.235
